pIC50: −log10 of the molar value.
Experiments:
[1] = system: quadriceps femoris muscle of one hind leg; assay: Local anesthetic activity: impaired ability of mice to grasp inverted screen after injection into quadriceps femoris muscle; format: in vivo, male albino overnight-fasted mice; conditions: Mus musculus, im, 5 min; overnight-fasted mice; 0.05 ml solution or suspension (w/v) injected into quadriceps femoris muscle of one hind leg; observed 5 min later; read-out: Concentration (in %) of Compound Causing Local Anesthetic Activity
Experimental: The local anesthetic activity of the above compounds was tested as follows.
The test compounds were dissolved or suspended in a 0.5% aqueous methylcellulose solution containing 0.4% (v/v) of Tween 80, The polyoxyethylene derivative of a sorbitan ester. Doses of up to 100 mg/kg were administered orally by gagvage tube to groups of three male albino overnight-fasted mice (18 to 24 g) which were observed intermittently for one hour. The mice were gently restrained and 0.05 ml of a 1% (w/v) solution or suspension of the test compound was injected into the quadriceps femoris muscle of one hind leg. Five minutes later, the mice were individually placed on a wire mesh screen. The wire mesh screen was then inverted. […] The response to the test compounds was compared to a similarly treated vehicle control group of mice.

[2] = system: gastric acid secretion; assay: Antisecretory activity: gastric acid secretion in pylorus-ligated rats; format: in vivo, male Charles River Sprague Dawley derived rats; conditions: Rattus norvegicus, intraduodenal or s.c., 4 h after ligation, acid output compared to control, read-out: % Acid Secreted
Experimental: The antisecretory activity of the above compounds was determined by measuring gastric acid secretion using pylorus ligation in a modification of the procedure of Shay et al., Gastroenterology 26, 906 (1954). Basically, male Charles River Sprague Dawley derived rats weighing 150-300 grams were deprived of food but not water for 18-24 hours prior to use. Water was withheld during the experiment, however. The rats were weighed, anesthesized with ether and the pylorus ligated according to the method of Shay et al., supra. Treatment or vehicle control was then administered intraduodenally (i.d.) or subcutaneously (s.c.). Rats were housed two/cage and sacrificed with CO2 four hours after ligation. The stomachs were removed, rinsed, and contents emptied into a graduated centrifuge tube. The tubes were centrifuged, the volume of gastric juice recorded, and any samples obviously contamined by feces, food or blood were eliminated. A 1 ml aliquot of gastric juice was titrated with 0.1N NaOH to a pH of 7.0-7.4. The volume of gastric juice secreted, the acid concentration, and the product of the volume times the concentration, i.e., the total amount of acid secreted, were measured.

[3] = system: calcium dependent smooth muscle contraction (trachealis muscle tissue); assay: Inhibition of calcium dependent smooth muscle contraction (tracheal rings, KCl challenge); format: cell-based, dogs; conditions: Canis lupus familiaris, 10 μM test compound for 10 min, dog tracheal rings, 30 min, 37° C.
Experimental: (§1) The calcium channel blocking activity of the above compounds was determined by measuring (A) the inhibition of calcium dependent smooth muscle contraction and (B) inhibition of nitrendipine binding as follows.
(A) Trachea from dogs sacrificed by excess KCl injection were stored overnight at 4° C. in oxygenated Krebs-Henseleit buffer. Tracheal rings, one cartilage segment wide (5-10 mm) were cut starting from the bronchial end. After cutting the cartilage, the trachealis muscle tissue was suspended in oxygenated Krebs-Henseleit buffer at 37° C. in a 25 ml tissue bath. After a 60 minute equilibration period, the tissues were challenged with 10 μM carbachol. After five minutes, the tissues were rinsed and allowed to rest 50 minutes. The tissues were then challened with 50 mM KCl and, after 30 minutes, the contracts were quantitated. The tissues were then rinsed and re-equilibrated for 50 minutes. Test compounds were then added at 10 μM for 10 minutes, and the tissues were rechallenged with 40 mM KCl.
The percent inhibition of smooth muscle contraction was calculated from response data before and after drug treatment. [formula]

[4] = target: T1, calcium channel (nitrendipine binding) (Oryctolagus cuniculus, UniProt P15381); assay: Inhibition of 3H-nitrendipine binding (heart membranes), calcium channel blocking activity; parameters: species or system female New Zealand white rabbits; conditions: 3H-nitrendipine 0.05-0.50 nM; rabbit heart membranes; 90 min at 4° C.; pH 7.4; read-out: B: IC50 (inhibition of nitrendipine binding)
T1 construct: the heart was immediately removed, cleaned and chopped into small pieces; from tissue; host or cells: rabbit heart, crude membrane pellet (42,000×g)
T1 sequence (P15381 whole entry, other chains not shown): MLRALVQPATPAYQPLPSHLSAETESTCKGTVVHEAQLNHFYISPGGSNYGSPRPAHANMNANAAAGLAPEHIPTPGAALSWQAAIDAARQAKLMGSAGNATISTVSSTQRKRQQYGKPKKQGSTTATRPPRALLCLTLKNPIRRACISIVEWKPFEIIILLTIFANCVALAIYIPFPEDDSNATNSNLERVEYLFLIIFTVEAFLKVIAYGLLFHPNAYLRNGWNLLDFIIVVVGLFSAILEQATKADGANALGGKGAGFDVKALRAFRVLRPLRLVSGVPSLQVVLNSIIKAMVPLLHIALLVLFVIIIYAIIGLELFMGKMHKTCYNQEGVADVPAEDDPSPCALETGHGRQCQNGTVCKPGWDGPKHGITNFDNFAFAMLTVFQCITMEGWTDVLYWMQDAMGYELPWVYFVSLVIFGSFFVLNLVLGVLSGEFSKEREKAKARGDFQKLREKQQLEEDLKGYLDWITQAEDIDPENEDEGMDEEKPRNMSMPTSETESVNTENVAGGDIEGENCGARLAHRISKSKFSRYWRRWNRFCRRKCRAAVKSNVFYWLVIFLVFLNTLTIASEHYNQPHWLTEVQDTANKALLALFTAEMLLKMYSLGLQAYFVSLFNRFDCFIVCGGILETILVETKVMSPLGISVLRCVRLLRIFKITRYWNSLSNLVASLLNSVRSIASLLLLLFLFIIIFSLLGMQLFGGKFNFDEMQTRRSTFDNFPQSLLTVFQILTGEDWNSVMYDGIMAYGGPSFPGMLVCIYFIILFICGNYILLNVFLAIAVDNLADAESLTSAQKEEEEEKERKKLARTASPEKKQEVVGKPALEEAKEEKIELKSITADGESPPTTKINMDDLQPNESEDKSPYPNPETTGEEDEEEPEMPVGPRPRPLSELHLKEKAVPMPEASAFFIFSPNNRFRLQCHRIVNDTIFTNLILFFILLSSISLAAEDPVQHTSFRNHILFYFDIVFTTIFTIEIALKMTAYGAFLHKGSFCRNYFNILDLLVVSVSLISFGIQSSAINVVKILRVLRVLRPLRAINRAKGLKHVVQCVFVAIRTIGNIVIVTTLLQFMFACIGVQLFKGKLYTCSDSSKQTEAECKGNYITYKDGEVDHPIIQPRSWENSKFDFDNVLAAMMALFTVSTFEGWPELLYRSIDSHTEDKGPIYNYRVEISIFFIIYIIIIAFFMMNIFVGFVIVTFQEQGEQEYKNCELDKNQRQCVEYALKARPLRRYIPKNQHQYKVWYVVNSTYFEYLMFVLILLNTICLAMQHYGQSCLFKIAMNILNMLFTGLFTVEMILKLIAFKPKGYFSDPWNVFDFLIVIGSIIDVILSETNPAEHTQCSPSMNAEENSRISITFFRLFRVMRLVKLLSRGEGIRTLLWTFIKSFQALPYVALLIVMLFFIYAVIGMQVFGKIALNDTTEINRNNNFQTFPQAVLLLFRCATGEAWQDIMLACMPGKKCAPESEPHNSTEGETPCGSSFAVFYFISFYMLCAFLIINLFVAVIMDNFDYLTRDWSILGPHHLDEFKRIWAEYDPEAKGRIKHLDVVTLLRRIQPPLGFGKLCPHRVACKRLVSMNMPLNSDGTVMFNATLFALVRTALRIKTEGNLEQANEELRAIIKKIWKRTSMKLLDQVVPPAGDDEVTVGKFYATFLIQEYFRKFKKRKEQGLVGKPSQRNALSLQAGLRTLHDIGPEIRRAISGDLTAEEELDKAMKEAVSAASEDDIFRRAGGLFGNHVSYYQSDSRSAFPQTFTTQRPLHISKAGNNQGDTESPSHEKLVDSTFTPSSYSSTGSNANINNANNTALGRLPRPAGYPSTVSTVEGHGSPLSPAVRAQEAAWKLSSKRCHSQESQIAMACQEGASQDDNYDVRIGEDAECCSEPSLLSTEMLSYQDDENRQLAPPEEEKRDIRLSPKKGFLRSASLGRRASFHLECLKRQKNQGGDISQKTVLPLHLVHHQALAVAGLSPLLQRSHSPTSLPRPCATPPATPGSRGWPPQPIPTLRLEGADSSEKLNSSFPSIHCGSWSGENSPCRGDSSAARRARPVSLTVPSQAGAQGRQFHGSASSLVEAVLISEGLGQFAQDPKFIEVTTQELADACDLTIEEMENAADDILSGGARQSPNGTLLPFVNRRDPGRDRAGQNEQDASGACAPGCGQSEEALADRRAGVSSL
T1 sequence (P13806 27-960 partner limits assumed, other chains not shown): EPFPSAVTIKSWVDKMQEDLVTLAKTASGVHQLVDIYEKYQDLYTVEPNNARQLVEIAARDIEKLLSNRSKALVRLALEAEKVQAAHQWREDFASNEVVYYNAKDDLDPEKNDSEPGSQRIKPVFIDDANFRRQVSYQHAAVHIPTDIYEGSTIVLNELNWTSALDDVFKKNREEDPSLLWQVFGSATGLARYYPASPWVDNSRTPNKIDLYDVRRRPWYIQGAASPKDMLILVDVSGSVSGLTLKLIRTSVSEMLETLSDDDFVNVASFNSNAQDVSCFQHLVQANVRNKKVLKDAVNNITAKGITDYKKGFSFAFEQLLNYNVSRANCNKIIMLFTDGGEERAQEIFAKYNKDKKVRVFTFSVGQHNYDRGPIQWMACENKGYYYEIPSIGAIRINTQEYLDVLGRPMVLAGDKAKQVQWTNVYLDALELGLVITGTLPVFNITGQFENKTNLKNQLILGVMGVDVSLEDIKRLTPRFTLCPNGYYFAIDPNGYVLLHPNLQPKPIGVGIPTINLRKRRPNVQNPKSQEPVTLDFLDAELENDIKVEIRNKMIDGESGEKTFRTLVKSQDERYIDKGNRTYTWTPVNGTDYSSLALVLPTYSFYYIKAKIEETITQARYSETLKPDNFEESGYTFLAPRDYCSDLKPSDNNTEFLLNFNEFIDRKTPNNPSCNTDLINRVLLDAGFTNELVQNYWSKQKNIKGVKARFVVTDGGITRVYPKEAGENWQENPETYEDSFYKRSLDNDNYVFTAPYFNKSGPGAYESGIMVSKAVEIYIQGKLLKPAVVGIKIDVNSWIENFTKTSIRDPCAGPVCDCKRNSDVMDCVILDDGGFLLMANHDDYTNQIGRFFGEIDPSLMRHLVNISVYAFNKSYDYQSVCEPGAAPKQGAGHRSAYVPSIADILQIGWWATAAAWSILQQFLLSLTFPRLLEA
T1 sequence (P13806 961-1106 partner limits assumed, other chains not shown): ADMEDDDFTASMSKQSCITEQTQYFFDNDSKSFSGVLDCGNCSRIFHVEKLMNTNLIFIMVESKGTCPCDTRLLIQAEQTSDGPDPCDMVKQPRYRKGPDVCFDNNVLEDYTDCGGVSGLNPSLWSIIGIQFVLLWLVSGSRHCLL
Experimental: as §1
(B) The inhibition of nitrendipine binding was determined by following the procedures of Bolger et al., Biochem. Biophys. Res. Comm. 104, 1604 (1982) and Ehlert et al., Life Sciences 30, 2191 (1982). Basically, female New Zealand white rabbits (1-2 kg) were sacrificed by cervical dislocation, and the heart was immediately removed, cleaned and chopped into small pieces. The tissue was homogenized in 5× volume of 0.05M Hepes buffer, pH 7.4. The homogenate was centrifuged at 400×g for 10 minutes; the supernatant was recentrifuged at 42,000×g for 90 minutes. The resulting membrane pellet was resuspended (0.7 ml/g weight) in 0.05M Hepes, pH 7.4, and stored at -70° C. until used. Each tube of the binding assay contained ^3 H-nitrendipine (0.05-0.50 nM), buffer, membranes (0.10 ml), and test compound in a total volume of 1.0 ml. After 90 minutes at 4° C., the bound nitrendipine was separated from the unbound by filtration to Whatman GF/C fibers. After rinsing, the filters were dried and counted in a liquid scintillation counter.
Non-specific binding of ^3 H-nitrendipine (that amount bound in the presence of excess unlabelled nitrendipine) was subtracted from the total bound to obtain specifically bound radiolabeled nitrendipine. The amount of specifically bound nitrendipine in the presence of a test compound was compared to that amount bound in the absence of a compound. A percent displacement (or inhibition) was then obtained.

| SMILES | minimal effective concentration [1] [µg/mL] | change in vivo at 20 mg/kg [2] [%] | inhibition at 10 µM [3] [%] | pIC50 [4] | change in vivo at 40 mg/kg ([2]; 40 mg/kg) [%] |
| --- | --- | --- | --- | --- | --- |
| CCCCN(CCCC)CCCOc1ccc(-c2cn3ccccc3n2)cc1 [Example 1, 2-(4-Dibutylaminopropoxyphenyl)imidazo[1,2-a]pyridine] | 1000 | -41 | 54 | 5.57 |  |
| CCCCN(CCCC)CCCOc1ccc(-c2cn3cccc(C)c3n2)cc1 [Example 2, 2-(4-Dibutylaminopropoxyphenyl)-8-methylimidazo[1,2-a]pyridine] | 10 | -91 | 61 | 6.22 |  |
| CCCCN(CCCC)CCCOc1ccc(-c2cn3cc(Br)ccc3n2)cc1 [Example 3, 2-(4-Dibutylaminopropoxyphenyl)-6-bromoimidazo[1,2-a]pyridine] | 10000 | -18 | 32 | 5.60 |  |
| CCCCN(CCCC)CCCOc1ccc(-c2cn3ccc(C)cc3n2)cc1 [Example 4, 2-(4-Dibutylaminopropoxyphenyl)-7-methylimidazo[1,2-a]pyridine] | 1000 |  | 46 | 5.22 |  |
| CCCCN(CCCC)CCCOc1ccc(-c2cn3cccc(O)c3n2)cc1 [Example 5, 2-(4-Dibutylaminopropoxyphenyl)-8-hydroxyimidazo[1,2-a]pyridine] | 10000 |  |  |  |  |
| CCCCN(CCCC)CCCOc1ccc(-c2cn3cccc(OCc4ccccc4)c3n2)cc1 [Example 6, 2-(4-Dibutylaminopropoxyphenyl)-8-benzloxyimidazo[1,2-a]pyridine] | 1000 | -16 | 35 | < 5.10 |  |
| CCCCN(CCCC)CCCOc1ccc(-c2nc3c(C)cccn3c2C)cc1 [Example 7, 2-(4-Dibutylaminopropoxyphenyl)-3,8-dimethylimidazo[1,2-a]pyridine] | 1000 | -54 | 27 | 5.72 |  |
| CCCCN(CCCC)CCCOc1ccc(C(=O)c2cn3cccc(C)c3n2)cc1 [Example 8, 2-(4-Dibutylaminopropoxybenzoyl)-8-methylimidazo[1,2-a]pyridine] | 10000 | -27 | 58 | 6.22 |  |
| CCCCN(CCCC)CCCOc1ccc(C(=O)c2cn3c(C)cc(C)cc3n2)cc1 [Example 9, 2-(4-Dibutylaminopropoxybenzoyl)-5,7-dimethylimidazo[1,2-a]pyridine] | 10000 | -27 | 39 | 5.66 |  |
| CCCCN(CCCC)CCCOc1ccc(C(=O)c2cn3ccc(C)cc3n2)cc1 [Example 10, 2-(4-Dibutylaminopropoxybenzoyl)-7-methylimidazo[1,2-a]pyridine] | 10000 |  | 42 | 5.80 |  |
| CCCCN(CCCC)CCCOc1ccc(C(=O)c2cn3cccc(OCc4ccccc4)c3n2)cc1 [Example 11, 2-(4-Dibutylaminopropoxybenzoyl)-8-benzyloxyimidazo[1,2-]pyridine] | 1000 |  | 18 | 5.64 |  |
| CCCCN(CCCC)CCCOc1ccc(C(=O)c2cn3cc(Br)ccc3n2)cc1 [Example 12] | 10000 |  |  | 5.52 |  |
| CCCCN(CCCC)CCCOc1ccc(C(=O)c2cnc3c(C)cccn23)cc1 [Example 13, 3-(4-Dibutylaminopropoxybenzoyl)-8-methylimidazo[1,2-a]pyridine] | 1000 |  | 56 | 6.28 | -49 |
| CCCCN(CCCC)CCCOc1ccc(C(=O)c2cnc3ccc(Br)cn23)cc1 [Example 14, 3-(4-Dibutylaminopropoxybenzoyl)-6-bromoimidazo[1,2-a]pyridine] | 1000 | -18 | 62 | 6.70 |  |

Reference: patent publication US4871745A, “2- or 3-aryl substituted imidazo(1,2-A)pyridines and their use as antisecretory agents” (Ortho Pharmaceutical Corporation, priority 1988, dated 1989)
